Results reported in ChEMBL document CHEMBL1201862, “PubChem BioAssay data set” (2004).
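These data come from cells grown in 96-well plates and exposed to compound for 48 hours at five concentrations. At the GI50, growth is halved.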 Activity calls are given as the source filed them. No stated cut-off is given here; in the data, active = GI50 up to about 1.1 µM and inactive = higher.

Key:
Test in all cases: NCI tumour cell line growth inhibition, 48 h
HL-60 = test system: HL-60
MOLT-4 = test system: MOLT-4
U-251 = test system: U-251
K562 = test system: K562
DU-145 = test system: DU-145
SK-OV-3 = test system: SK-OV-3
SK-MEL-28 = test system: SK-MEL-28
SW-620 = test system: SW-620
NCI-H226 = test system: NCI-H226
SNB-75 = test system: SNB-75
SR = test system: SR
M14 = test system: M14
RPMI-8226 = test system: RPMI-8226
PC-3 = test system: PC-3
UACC-257 = test system: UACC-257
BT-549 = test system: BT-549
SK-MEL-5 = test system: SK-MEL-5
SK-MEL-2 = test system: SK-MEL-2
OVCAR-5 = test system: OVCAR-5
MDA-MB-231 = test system: MDA-MB-231
COLO 205 = test system: COLO 205
NCI/ADR-RES = test system: NCI/ADR-RES
MDA-N = test system: MDA-N
KM12 = test system: KM12
TK-10 = test system: TK-10
NCI-H23 = test system: NCI-H23
HCT-116 = test system: HCT-116
UACC-62 = test system: UACC-62
NCI-H460 = test system: NCI-H460
Hs-578T = test system: Hs-578T
OVCAR-3 = test system: OVCAR-3
CAKI-1 = test system: CAKI-1
SN12C = test system: SN12C
OVCAR-4 = test system: OVCAR-4
SF-268 = test system: SF-268
HCC 2998 = test system: HCC 2998
HCT-15 = test system: HCT-15
NCI-H522 = test system: NCI-H522
ACHN = test system: ACHN
HOP-62 = test system: HOP-62
MDA-MB-435 = test system: MDA-MB-435
A549 = test system: A549
RXF 393 = test system: RXF 393
SNB-19 = test system: SNB-19
CCRF-CEM = test system: CCRF-CEM
T47D = test system: T47D
SF-295 = test system: SF-295
OVCAR-8 = test system: OVCAR-8
EKVX = test system: EKVX
HOP-92 = test system: HOP-92
786-0 = test system: 786-0
LOX IMVI = test system: LOX IMVI
MCF7 = test system: MCF7
IGROV-1 = test system: IGROV-1
Malme-3M = test system: Malme-3M
SF-539 = test system: SF-539
A498 = test system: A498
HT-29 = test system: HT-29
UO-31 = test system: UO-31

Compound: c1ccc2c(c1)N=c1cc3c(cc1N2)=NC12CCCCC1CC1=C(CCCC1)N32 (stereo unspecified)
- GI50 (HL-60): 3.04 µM (inactive)
- GI50 (MOLT-4): 2.6 µM (inactive)
- GI50 (U-251): 5.16 µM (inactive)
- GI50 (K562): 2.2 µM (inactive)
- GI50 (DU-145): > 10 µM (inactive)
- GI50 (SK-OV-3): > 10 µM (inactive)
- GI50 (SK-MEL-28): 3.3 µM (inactive)
- GI50 (SW-620): 5.47 µM (inactive)
- GI50 (NCI-H226): 2.31 µM (inactive)
- GI50 (SNB-75): 2.59 µM (inactive)
- GI50 (SR): 0.425 µM (active)
- GI50 (M14): 2.52 µM (inactive)
- GI50 (RPMI-8226): 2.07 µM (inactive)
- GI50 (PC-3): 2.76 µM (inactive)
- GI50 (UACC-257): 2.03 µM (inactive)
- GI50 (BT-549): 2.61 µM (inactive)
- GI50 (SK-MEL-5): 1.81 µM (inactive)
- GI50 (SK-MEL-2): 3.44 µM (inactive)
- GI50 (OVCAR-5): 5.36 µM (inactive)
- GI50 (MDA-MB-231): 4.16 µM (inactive)
- GI50 (COLO 205): 1.79 µM (inactive)
- GI50 (NCI/ADR-RES): 4.57 µM (inactive)
- GI50 (MDA-N): 2.21 µM (inactive)
- GI50 (KM12): 2.37 µM (inactive)
- GI50 (TK-10): 5.02 µM (inactive)
- GI50 (NCI-H23): 4.56 µM (inactive)
- GI50 (HCT-116): 3.24 µM (inactive)
- GI50 (UACC-62): 3.32 µM (inactive)
- GI50 (NCI-H460): 6.17 µM (inactive)
- GI50 (Hs-578T): 3.82 µM (inactive)
- GI50 (OVCAR-3): 1.74 µM (inactive)
- GI50 (CAKI-1): 6.58 µM (inactive)
- GI50 (SN12C): 2.36 µM (inactive)
- GI50 (OVCAR-4): 2.15 µM (inactive)
- GI50 (SF-268): 4.55 µM (inactive)
- GI50 (HCC 2998): 6.76 µM (inactive)
- GI50 (HCT-15): 5.82 µM
- GI50 (NCI-H522): 4.19 µM (inactive)
- GI50 (ACHN): 2.81 µM (inactive)
- GI50 (HOP-62): 6.53 µM (inactive)
- GI50 (MDA-MB-435): 1.88 µM (inactive)
- GI50 (A549): 3.61 µM (inactive)
- GI50 (RXF 393): 1.39 µM (inactive)
- GI50 (SNB-19): 5.25 µM (inactive)
- GI50 (CCRF-CEM): 2.12 µM (inactive)
- GI50 (T47D): 3.94 µM (inactive)
- GI50 (SF-295): 9.04 µM (inactive)
- GI50 (OVCAR-8): 3.21 µM (inactive)
- GI50 (EKVX): 4.53 µM (inactive)
- GI50 (HOP-92): 4.46 µM (inactive)
- GI50 (786-0): 2.89 µM (inactive)
- GI50 (LOX IMVI): 3.57 µM (inactive)
- GI50 (MCF7): 3.3 µM (inactive)
- GI50 (IGROV-1): 3.4 µM (inactive)
- GI50 (Malme-3M): 2.17 µM (inactive)
- GI50 (SF-539): 3.4 µM (inactive)
- GI50 (A498): 6.52 µM (inactive)
- GI50 (HT-29): 3.18 µM (inactive)

Compound: CC(C)=CCc1c2c(c(O)c3c(=O)c4c(oc13)-c1ccc(O)cc1OC4C=C(C)C)C=CC(C)(C)O2 (stereo unspecified)
- GI50 (HL-60): 15.2 µM (inactive)
- GI50 (U-251): 12.2 µM (inactive)
- GI50 (K562): 8.65 µM (inactive)
- GI50 (DU-145): 14 µM (inactive)
- GI50 (SK-OV-3): 18.5 µM (inactive)
- GI50 (SK-MEL-28): 14.6 µM (inactive)
- GI50 (SW-620): 8.32 µM (inactive)
- GI50 (NCI-H226): 21.9 µM (inactive)
- GI50 (SNB-75): 11.9 µM (inactive)
- GI50 (SR): 5.33 µM (inactive)
- GI50 (M14): 18 µM (inactive)
- GI50 (RPMI-8226): 3.54 µM (inactive)
- GI50 (PC-3): 12.1 µM (inactive)
- GI50 (UACC-257): 15.4 µM (inactive)
- GI50 (BT-549): 13.9 µM (inactive)
- GI50 (SK-MEL-5): 14.8 µM (inactive)
- GI50 (SK-MEL-2): 12.6 µM (inactive)
- GI50 (OVCAR-5): 20.2 µM (inactive)
- GI50 (MDA-MB-231): 14.2 µM (inactive)
- GI50 (COLO 205): 21 µM (inactive)
- GI50 (NCI/ADR-RES): 16.9 µM (inactive)
- GI50 (MDA-N): 13.2 µM (inactive)
- GI50 (KM12): 8.04 µM (inactive)
- GI50 (TK-10): 14.8 µM (inactive)
- GI50 (NCI-H23): 6.31 µM (inactive)
- GI50 (HCT-116): 8.45 µM (inactive)
- GI50 (UACC-62): 13.7 µM (inactive)
- GI50 (NCI-H460): 13.7 µM (inactive)
- GI50 (Hs-578T): 2.37 µM (inactive)
- GI50 (OVCAR-3): 12.3 µM (inactive)
- GI50 (CAKI-1): 20 µM (inactive)
- GI50 (SN12C): 6.35 µM (inactive)
- GI50 (OVCAR-4): 11.6 µM (inactive)
- GI50 (SF-268): 14.2 µM (inactive)
- GI50 (HCC 2998): 3.34 µM (inactive)
- GI50 (HCT-15): 7.5 µM
- GI50 (NCI-H522): 12.4 µM (inactive)
- GI50 (UO-31): 18.3 µM (inactive)
- GI50 (ACHN): 11.8 µM (inactive)
- GI50 (HOP-62): 14.2 µM (inactive)
- GI50 (MDA-MB-435): 10.6 µM (inactive)
- GI50 (A549): 10.8 µM (inactive)
- GI50 (RXF 393): 7.29 µM (inactive)
- GI50 (SNB-19): 15.3 µM (inactive)
- GI50 (CCRF-CEM): 3.99 µM (inactive)
- GI50 (T47D): 8.79 µM (inactive)
- GI50 (SF-295): 14.6 µM (inactive)
- GI50 (OVCAR-8): 13.3 µM (inactive)
- GI50 (EKVX): 14.9 µM (inactive)
- GI50 (HOP-92): 7.11 µM (inactive)
- GI50 (786-0): 11.4 µM (inactive)
- GI50 (LOX IMVI): 8.61 µM (inactive)
- GI50 (MCF7): 13.5 µM (inactive)
- GI50 (IGROV-1): 14 µM (inactive)
- GI50 (Malme-3M): 19.3 µM (inactive)
- GI50 (SF-539): 17.2 µM (inactive)
- GI50 (A498): 19.5 µM (inactive)
- GI50 (HT-29): 13 µM (inactive)
